Legend:
[1] = target: BCL6 BTB domain (Homo sapiens (Human), UniProt P41182); test: Surface plasmon resonance (SPR) assay; assay type: binding; details: BCL6 BTB domain captured on SA chip, single cycle kinetics
[2] = system: BCL6 reporter construct (3xBCL6-TK-Luc) in SuDHL4 cells; test: Cell-based luciferase assay; details: Homo sapiens, SU-DHL-4, 48 h, read-out: Luciferase-Assay EC50, uM), SuDHL4-3xBCL6-TK-Luc cells, two days, high dose 10 uM
Summary of the method: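 SuDHL4 cells stably carrying a 3×BCL6-site TK-promoter firefly luciferase reporter, seeded at 15,000 cells/well, were dosed over a 10-point range (top 10 uM) and grown two days at 37 °C, 5% CO2. Luminescence then read after adding neolite reagent at room temperature.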

[3] = system: Karpas422 cells; test: Tumor cell growth inhibition assay; assay type: cell-based; details: Homo sapiens, KARPAS-422, 144 h, read-out: Tumor Growth Inhibition in Karpas-422 (IC50, uM), Karpas422 cells, six days, ATPlite
Summary of the method: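 Growth inhibition was measured by ATPlite luminescence after six days of culture at 37° C. in 5% CO2. Karpas422 cells were seeded at 2,000 per well in Alpha-MEM plus 10% FBS. Compounds were given as a 10-point concentration series with a highest dose of 5 uM.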

Row | Structure (SMILES) | Kd [1] | EC50 [2] | IC50 [3]
1 | CO[C@H]1CN(c2cc(NC(=O)Cn3cc(-c4cc(Cl)c(O)c(C(N)=O)c4)c4c(=O)n(C)c(C(F)(F)F)nc43)c(Cl)cn2)C[C@H]1F [Compound I-387] | 189 nM | 1.12 µM | 1.04 µM
2 | CO[C@@H]1CN(c2cc(NC(=O)Cn3cc(-c4cc(Cl)c(O)c(C(N)=O)c4)c4c(=O)n(C)c(C(F)(F)F)nc43)c(Cl)c(F)n2)C[C@@H]1F [Compound I-388] | 528 nM | 1.51 µM | 0.394 µM
3 | CO[C@H]1CN(c2cc(NC(=O)Cn3cc(-c4cc(Cl)c(O)c(C(N)=O)c4)c4c(=O)n(C)c(C(F)(F)F)nc43)c(Cl)c(F)n2)C[C@H]1F [Compound I-389] | 286 nM | 2.01 µM | 1.46 µM
4 | CCN1CCN(c2cc(NC(=O)Cn3cc(-c4cc(F)c(O)c(C(N)=O)c4)c4c(=O)n(C)cnc43)c(Cl)cn2)[C@@H](C)C1 [Compound I-390] | 6.18 nM | 0.0677 µM | 0.0483 µM
5 | CC(C1CC1)N1CCN(c2cc(NC(=O)Cn3cc(-c4cc(F)c(O)c(C(N)=O)c4)c4c(=O)n(C)cnc43)c(Cl)cn2)[C@@H](C)C1 (stereo partly drawn) [Compound I-391] | 7.26 nM | 0.0672 µM | 0.0726 µM
6 | CC(C1CC1)N1CCN(c2cc(NC(=O)Cn3cc(-c4cc(Cl)c(O)c(C(N)=O)c4)c4c(=O)n(C)cnc43)c(Cl)cn2)[C@@H](C)C1 (stereo partly drawn) [Compound I-392] | 15.5 nM | 0.178 µM | 0.072 µM
7 | CC(C1CC1)N1CCN(c2cc(NC(=O)Cn3cc(-c4cc(C(N)=O)c(O)c(F)c4F)c4c(=O)n(C)cnc43)c(Cl)cn2)[C@@H](C)C1 (stereo partly drawn) [Compound I-393] | 33.6 nM | 0.266 µM | 0.222 µM
8 | CCCN1CCN(c2cc(NC(=O)Cn3cc(-c4cc(C(N)=O)c(O)c(F)c4F)c4c(=O)n(C)cnc43)c(Cl)cn2)[C@@H](C)C1 [Compound I-394] | 38.4 nM | 0.313 µM | 0.269 µM
9 | CN1CCOC2CN(c3cc(NC(=O)Cn4cc(-c5cc(Cl)c(O)c(C(N)=O)c5)c5c(=O)n(C)c(C(F)(F)F)nc54)c(Cl)cn3)CC21 (stereo not drawn) [Compound I-395] | 48.3 nM | 0.168 µM | 0.669 µM
10 | CN1CC2CCC(C1)N2c1cc(NC(=O)Cn2cc(-c3cc(Cl)c(O)c(C(N)=O)c3)c3c(=O)n(C)c(C(F)(F)F)nc32)c(Cl)cn1 [Compound I-396] | 226 nM | 0.683 µM | 0.749 µM
11 | C[C@H]1COCCN1c1cc(NC(=O)Cn2cc(-c3cc(C(N)=O)c(O)c(F)c3F)c3c(=O)n(C)cnc32)c(F)cn1 [Compound I-397] | 98.3 nM | 3.31 µM | 2.54 µM
12 | COc1ccc(Cl)c(NC(=O)Cn2cc(-c3cc(Cl)c(O)c(C(N)=O)c3)c3c(=O)n(C)cnc32)c1 [Compound I-398] | 82.7 nM | 2.6 µM | 1.3 µM
13 | CO[C@@H]1CN(c2cc(NC(=O)Cn3cc(-c4cc(Cl)c(O)c(C(N)=O)c4)c4c(=O)n(C)c(C)nc43)c(Cl)c(F)n2)C[C@@H]1F [Compound I-399] | 30.7 nM | 0.268 µM | 0.535 µM
14 | CO[C@H]1CN(c2cc(NC(=O)Cn3cc(-c4cc(Cl)c(O)c(C(N)=O)c4)c4c(=O)n(C)c(C)nc43)c(Cl)c(F)n2)C[C@H]1F [Compound I-400] | 27.8 nM | 0.204 µM | 0.408 µM
15 | CO[C@H]1CN(c2cc(NC(=O)Cn3cc(-c4cc(Cl)c(O)c(C(N)=O)c4)c4c(=O)n(C)c(C)nc43)c(Cl)cn2)C[C@H]1F [Compound I-401] | 28.9 nM | 0.427 µM | 1.22 µM
16 | CO[C@@H]1CN(c2cc(NC(=O)Cn3cc(-c4cc(Cl)c(O)c(C(N)=O)c4)c4c(=O)n(C)c(C)nc43)c(Cl)cn2)C[C@@H]1F [Compound I-402] | 28 nM | 0.18 µM | 0.714 µM

Row | Structure (SMILES) | Kd [1] | EC50 [2] | IC50 [3]
17 | CN1CCOC2(CCN(c3cc(NC(=O)Cn4cc(-c5cc(C(N)=O)c(O)c(F)c5F)c5c(=O)n(C)cnc54)c(Cl)cn3)C2)C1 (stereo not drawn) [Compound I-403] | 81.9 nM | 5.54 µM | 3.32 µM
18 | Cn1cnc2c(c(-c3cc(C(N)=O)c(O)c(F)c3F)cn2CC(=O)Nc2cc(N3CCOCC3)ncc2F)c1=O [Compound I-404] | 106 nM | 4.06 µM | 10 µM
19 | C[C@H]1CN(Cc2ccco2)CCN1c1cc(NC(=O)Cn2cc(-c3cc(C(N)=O)c(O)c(F)c3F)c3c(=O)n(C)cnc32)c(Cl)cn1 [Compound I-405] | 32.6 nM | 0.459 µM | 0.254 µM
20 | Cc1ccc(CN2CCN(c3cc(NC(=O)Cn4cc(-c5cc(C(N)=O)c(O)c(F)c5F)c5c(=O)n(C)cnc54)c(Cl)cn3)[C@@H](C)C2)s1 [Compound I-406] | 574 nM | 3.06 µM | 4.32 µM
21 | C[C@H]1CN(CC2(C#N)CC2)CCN1c1cc(NC(=O)Cn2cc(-c3cc(C(N)=O)c(O)c(F)c3F)c3c(=O)n(C)cnc32)c(Cl)cn1 [Compound I-407] | 23.6 nM | 0.783 µM | 0.377 µM
22 | C[C@H]1CN(CC2CCC2)CCN1c1cc(NC(=O)Cn2cc(-c3cc(C(N)=O)c(O)c(F)c3F)c3c(=O)n(C)cnc32)c(Cl)cn1 [Compound I-408] | 38.2 nM | 0.759 µM | 0.463 µM
23 | C[C@H]1COCCN1c1cc(NC(=O)Cn2cc(-c3cc(C(N)=O)c(O)c(Cl)c3F)c3c(=O)n(C)cnc32)c(Cl)c(F)n1 [Compound I-409] | 95.2 nM | 2.34 µM | 1.82 µM
24 | COc1c(O)c(C(N)=O)cc(-c2cn(CC(=O)Nc3cc(N4CCOC[C@@H]4C)nc(F)c3Cl)c3ncn(C)c(=O)c23)c1F [Compound I-411] | 46.2 nM | 0.771 µM | 1.12 µM
25 | C[C@H]1CN(C2COC2)CCN1c1cc(NC(=O)Cn2cc(-c3cc(Cl)c(O)c(C(N)=O)c3)c3c(=O)n(C)cnc32)c(Cl)c(F)n1 [Compound I-413] | 6.15 nM | 0.06 µM | 0.0822 µM
26 | COCCN1CCN(c2cc(NC(=O)Cn3cc(-c4cc(C(N)=O)c(O)c(F)c4F)c4c(=O)n(C)cnc43)c(Cl)cn2)[C@@H](C)C1 [Compound I-414] | 17.9 nM | 0.374 µM | 0.455 µM
27 | COCCN1CCN(c2cc(NC(=O)Cn3cc(-c4cc(Cl)c(O)c(C(N)=O)c4)c4c(=O)n(C)cnc43)c(Cl)cn2)[C@@H](C)C1 [Compound I-415] | 5.95 nM | 0.0872 µM | 0.122 µM
28 | COCCN1CCN(c2cc(NC(=O)Cn3cc(-c4cc(F)c(O)c(C(N)=O)c4)c4c(=O)n(C)cnc43)c(Cl)cn2)[C@@H](C)C1 [Compound I-416] | 2.73 nM | 0.0787 µM | 0.0592 µM
29 | Cn1cnc2c(c(-c3cc(C(N)=O)c(O)c(F)c3F)cn2CC(=O)Nc2cc(N3CCCC3)nc(F)c2Cl)c1=O [Compound I-417] | 21.7 nM | 0.478 µM | 0.441 µM
30 | Cn1cnc2c(c(-c3cc(Cl)c(O)c(C(N)=O)c3)cn2CC(=O)Nc2cc(N3CCCC3)nc(F)c2Cl)c1=O [Compound I-418] | 22.1 nM | 0.663 µM | 0.303 µM
31 | Cn1cnc2c(c(-c3cc(F)c(O)c(C(N)=O)c3)cn2CC(=O)Nc2cc(N3CCCC3)nc(F)c2Cl)c1=O [Compound I-419] | 5.85 nM | 0.348 µM | 0.22 µM
32 | CN(C)c1cc(NC(=O)Cn2cc(-c3cc(C(N)=O)c(O)c(F)c3F)c3c(=O)n(C)cnc32)c(Cl)c(F)n1 [Compound I-420] | 16.3 nM | 0.429 µM | 0.383 µM
